Target: T1, SOD1^WT (Homo sapiens, UniProt P00441)
T1 construct: The full-length constructs of SOD1-wild type (aa: 1–145); His-tag (cleaved yes); made in house; host or cells: E. coli BL21 DE3
Assay: Analytical size-exclusion chromatography (SEC) aggregation assay, SOD1^WT
Assay type: biochemical
Settings: PB 30X, reducing conditions
Experimental: Fig 6 Aggregation studies of metallated and reduced SOD1^WT and SOD1^A4V on treatment with PB. ThT fluorescence was monitored during the co-incubation of metallated SOD1^WT (50 μM) (a) or SOD1^A4V (50 μM) (b) with PB at 1:30 molar ratio at 37 °C with continuous shaking, under reduced conditions. The values were normalized to the maximal ThT intensity elicited by SOD1^WT or SOD1^A4V and fitted to a Boltzmann sigmoidal equation. The control and PB-treated species were compared to analyse the effects of PB on the aggregation of SOD1^WT and SOD1^A4V. Error bars indicate the standard deviation. Analytical SEC of metallated SOD1^WT (50 μM) (c) and SOD1^A4V (50 μM) (d) with PB were analyzed under reducing conditions before and after 24 hrs and 48 hrs incubation at 37 °C. The first peak eluting at the volume was denoted as oligomerized SOD1^WT/SOD1^A4V (L). The second, third, and fourth peaks were calculated as trimer (T), dimer (D), and monomer (M) species of SOD1^WT/SOD1^A4V running at 14.5 ml, 15.7 ml, and 16.5 ml, respectively. […] The monomer (M), dimer (D), trimer (T), and large aggregate (L) species are shown as green, purple, red, and black dotted lines, respectively. All the experiments were performed for n = 3 biological replicates. […]
Fig 7 Aggregation studies of de-metallated and reduced SOD1^WT and SOD1^A4V on treatment with PB. ThT fluorescence was monitored during the co-incubation of de-metallated SOD1^WT (50 μM) (a) or SOD1^A4V (50 μM) (b) with PB at 1:30 molar ratio at 37 °C with continuous shaking, under reduced conditions. […] Analytical SEC of de-metallated SOD1^WT (50 μM) (a) and SOD1^A4V (50 μM) (b) with PB were analysed under reducing conditions before and after 24 hrs and 48 hrs incubation at 37 °C. […] The second, third, and fourth peaks were calculated as trimer (T), dimer (D), and monomer (M) species of SOD1^WT/SOD1^A4V running at 14.5 ml, 15.7 ml, and 16.5 ml, respectively. […]

[1] = Metallated SOD1^WT 50 μM, 24 and 48 hrs at 37 °C

T1 sequence (P00441 whole entry): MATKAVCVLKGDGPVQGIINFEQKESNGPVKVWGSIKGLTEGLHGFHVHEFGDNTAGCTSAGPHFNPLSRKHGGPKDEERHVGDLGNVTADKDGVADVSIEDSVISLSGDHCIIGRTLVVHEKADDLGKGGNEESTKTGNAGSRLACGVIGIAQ

SMILES: CCCC[C@H](C)/C=C(C)/C=C/C(=O)O [PB, (S, 2E, 4E)-4,6-dimethyldeca-2,4-dienoic acid]
- formation of trimer species (SEC) (De-metallated (EDTA) SOD1^WT 50 μM, 48hrs): insignificantly reduced compared to the control
- formation of higher aggregates (SEC, eluting at 9.2 ml) [1]: may induce the formation of higher aggregates in a time-dependent manner
- toxic trimer population (SEC) [1]: time-dependent alleviation of toxic trimer population
